Test results as given in ChEMBL document CHEMBL1128034, “Structure activity of topoisomerase i poisons related to hoechst 33342” (Bioorg Med Chem Lett, 1994).

Test system: SK-MEL; call rule not given here
Experiment: Cytotoxicity towards melanoma (SK-Mel) cells in human
Type: functional, cell-based

Compound	IC50 [µM]
COc1ccc(-c2nc3cc(-c4nc5cc(N6CCN(C)CC6)ccc5[nH]4)ccc3[nH]2)cc1	1.1
COc1ccc(-c2nc3cc(-c4nc5cc(CN(C)C)ccc5[nH]4)ccc3[nH]2)cc1	10
CCOc1ccc(-c2nc3cc(-c4nc5cc(N6CCN(C)CC6)ccc5[nH]4)ccc3[nH]2)cc1	1.6
COc1ccc(-c2nc3cc(-c4nc5cc(CCCN(C)C)ccc5[nH]4)ccc3[nH]2)cc1	10
COc1ccc(-c2nc3cc(-c4nc5cc(CCN(C)C)ccc5[nH]4)ccc3[nH]2)cc1	8.5
COc1ccc(-c2nc3cc(-c4nc5cc(N)ccc5[nH]4)ccc3[nH]2)cc1	6.2
COc1ccc(-c2nc3cc(-c4nc5cc(N(C)C)ccc5[nH]4)ccc3[nH]2)cc1	26
COc1ccc(-c2nc3cc(-c4nc5cc(OC6CCN(C)CC6)ccc5[nH]4)ccc3[nH]2)cc1	2

Test system: RPMI 8402
Experiment: Cytotoxicity towards lymphoblastoma (RPMI 8402) cells in human
Type: functional, cell-based

Compound	IC50 [µM]
COc1ccc(-c2nc3cc(-c4nc5cc(N6CCN(C)CC6)ccc5[nH]4)ccc3[nH]2)cc1	< 0.05
COc1ccc(-c2nc3cc(-c4nc5cc(CN(C)C)ccc5[nH]4)ccc3[nH]2)cc1	0.38
CCOc1ccc(-c2nc3cc(-c4nc5cc(N6CCN(C)CC6)ccc5[nH]4)ccc3[nH]2)cc1	0.005
COc1ccc(-c2nc3cc(-c4nc5cc(CCCN(C)C)ccc5[nH]4)ccc3[nH]2)cc1	1.2
COc1ccc(-c2nc3cc(-c4nc5cc(CCN(C)C)ccc5[nH]4)ccc3[nH]2)cc1	0.61
COc1ccc(-c2nc3cc(-c4nc5cc(N)ccc5[nH]4)ccc3[nH]2)cc1	1.7
COc1ccc(-c2nc3cc(-c4nc5cc(N(C)C)ccc5[nH]4)ccc3[nH]2)cc1	0.13
COc1ccc(-c2nc3cc(-c4nc5cc([N+](=O)[O-])ccc5[nH]4)ccc3[nH]2)cc1	0.65
COc1ccc(-c2nc3cc(-c4nc5cc(OC6CCN(C)CC6)ccc5[nH]4)ccc3[nH]2)cc1	< 0.04

Test system: PC-3
Experiment: Cytotoxicity towards prostatic carcinoma (PC3) cells in human; Not active
Type: functional, cell-based

Compound	IC50
COc1ccc(-c2nc3cc(-c4nc5cc([N+](=O)[O-])ccc5[nH]4)ccc3[nH]2)cc1	Not Active

Test system: PC-3
Experiment: Cytotoxicity towards prostatic carcinoma (PC3) cells in human
Type: functional, cell-based

Compound	IC50 [µM]
COc1ccc(-c2nc3cc(-c4nc5cc(N6CCN(C)CC6)ccc5[nH]4)ccc3[nH]2)cc1	0.84
COc1ccc(-c2nc3cc(-c4nc5cc(CN(C)C)ccc5[nH]4)ccc3[nH]2)cc1	52
CCOc1ccc(-c2nc3cc(-c4nc5cc(N6CCN(C)CC6)ccc5[nH]4)ccc3[nH]2)cc1	0.71
COc1ccc(-c2nc3cc(-c4nc5cc(CCCN(C)C)ccc5[nH]4)ccc3[nH]2)cc1	28
COc1ccc(-c2nc3cc(-c4nc5cc(CCN(C)C)ccc5[nH]4)ccc3[nH]2)cc1	43
COc1ccc(-c2nc3cc(-c4nc5cc(N)ccc5[nH]4)ccc3[nH]2)cc1	19
COc1ccc(-c2nc3cc(-c4nc5cc(N(C)C)ccc5[nH]4)ccc3[nH]2)cc1	4.9
COc1ccc(-c2nc3cc(-c4nc5cc(OC6CCN(C)CC6)ccc5[nH]4)ccc3[nH]2)cc1	0.38

Test system: SK-MEL
Experiment: Cytotoxicity towards melanoma (SK-Mel) cells in human; Not active
Type: functional, cell-based

Compound	IC50
COc1ccc(-c2nc3cc(-c4nc5cc([N+](=O)[O-])ccc5[nH]4)ccc3[nH]2)cc1	Not Active

Test system: RPMI 8402
Experiment: Cytotoxicity towards camptothecin resistant CPT-K5 cell line in human
Type: functional, cell-based

Compound	IC50 [µM]
COc1ccc(-c2nc3cc(-c4nc5cc(N6CCN(C)CC6)ccc5[nH]4)ccc3[nH]2)cc1	0.57
COc1ccc(-c2nc3cc(-c4nc5cc(CN(C)C)ccc5[nH]4)ccc3[nH]2)cc1	6.3
CCOc1ccc(-c2nc3cc(-c4nc5cc(N6CCN(C)CC6)ccc5[nH]4)ccc3[nH]2)cc1	0.5
COc1ccc(-c2nc3cc(-c4nc5cc(CCCN(C)C)ccc5[nH]4)ccc3[nH]2)cc1	7.1
COc1ccc(-c2nc3cc(-c4nc5cc(CCN(C)C)ccc5[nH]4)ccc3[nH]2)cc1	6.1
COc1ccc(-c2nc3cc(-c4nc5cc(N)ccc5[nH]4)ccc3[nH]2)cc1	14
COc1ccc(-c2nc3cc(-c4nc5cc(N(C)C)ccc5[nH]4)ccc3[nH]2)cc1	0.65
COc1ccc(-c2nc3cc(-c4nc5cc([N+](=O)[O-])ccc5[nH]4)ccc3[nH]2)cc1	3.9
COc1ccc(-c2nc3cc(-c4nc5cc(OC6CCN(C)CC6)ccc5[nH]4)ccc3[nH]2)cc1	0.44
